From paper PMC5668910 (Biochemistry and Biophysics Reports, 2015)

What was measured:
Design in all cases: species or system guinea pig
[1] = target: T1, gpBLT1 His83Gly^2.67/Lys88Gly^3.21 (Cavia porcellus, UniProt H0VYV8, H83G/K88G/S309A); assay: saturation binding of LTB4, membrane fraction
[2] = target: T2, original gpBLT1 dN15/Ser309Ala (Cavia porcellus, UniProt H0VYV8, S309A); assay: saturation binding of LTB4, membrane fraction
[3] = target: T1, gpBLT1 His83Gly^2.67/Lys88Gly^3.21; assay: competitive ligand binding
[4] = target: T2, original gpBLT1 dN15/Ser309Ala; assay: competitive ligand binding
[5] = target: purified gpBLT1 His83Gly^2.67/Lys88Gly^3.21 (Cavia porcellus, UniProt H0VYV8, H83G/K88G/S309A); assay: competitive ligand binding to purified receptor
Sequence of purified gpBLT1 His83Gly^2.67/Lys88Gly^3.21 (H0VYV8 1-348 H83G/K88G/S309A): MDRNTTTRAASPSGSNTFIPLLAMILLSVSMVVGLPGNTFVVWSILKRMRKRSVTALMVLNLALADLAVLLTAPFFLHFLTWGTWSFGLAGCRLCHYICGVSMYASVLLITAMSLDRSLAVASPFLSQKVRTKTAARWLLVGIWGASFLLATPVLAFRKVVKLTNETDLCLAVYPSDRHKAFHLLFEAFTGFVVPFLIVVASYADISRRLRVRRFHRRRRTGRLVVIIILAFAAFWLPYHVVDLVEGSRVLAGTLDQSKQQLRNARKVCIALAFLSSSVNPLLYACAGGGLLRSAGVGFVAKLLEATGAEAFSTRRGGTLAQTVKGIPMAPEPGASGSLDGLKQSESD

T2 sequence (H0VYV8 16-348 S309A): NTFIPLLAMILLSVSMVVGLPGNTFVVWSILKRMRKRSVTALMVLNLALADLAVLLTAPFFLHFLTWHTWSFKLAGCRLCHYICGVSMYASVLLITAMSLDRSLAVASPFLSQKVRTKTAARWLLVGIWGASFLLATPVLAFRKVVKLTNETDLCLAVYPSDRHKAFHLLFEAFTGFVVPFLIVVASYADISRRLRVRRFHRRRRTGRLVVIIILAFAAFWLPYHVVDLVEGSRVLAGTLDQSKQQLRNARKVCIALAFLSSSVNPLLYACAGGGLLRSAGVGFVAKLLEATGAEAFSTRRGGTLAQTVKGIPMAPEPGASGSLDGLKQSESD
T1 sequence (H0VYV8 1-348 H83G/K88G/S309A): as the sequence (H0VYV8 1-348 H83G/K88G/S309A) above

## CCCCC/C=C\C[C@@H](O)/C=C/C=C/C=C\[C@@H](O)CCCC(=O)O [LTB4, leukotriene B4]
[1]
  Kd: 8.2 nM
[2]
  Kd: 6.6 nM
[3]
  Ki: 12.9 nM
[4]
  Ki: 3.8 nM
[5]
  IC50: 2.4 nM
